# From patent US6579718B1, “Carbazolylvinyl dye protein stains” (Molecular Probes, Inc., priority 2000, dated 2003)
# How the values were obtained:
# BSA = BSA (Bos taurus, UniProt P02769); experiment: Absorbance/emission spectra, fluorescence enhancement and quantum yield of dyes in solution +/- BSA (Example 21); assay type: physicochemical, bovine; conditions: for ABS λ max, BSA / EM λ max, BSA / FE (fluorescence enhancement, BSA) / Quantum Yield (BSA): 150 μg/mL BSA; for ABS λ max, BSA / EM λ max, BSA / ABS λ max, unbound / EM λ max, unbound: 10 mM Tris-HCl, pH 7.5, 0.05% SDS; for FE (fluorescence enhancement, BSA): 0.05% SDS, at emission maxima; for FE (fluorescence enhancement, BSA) / Quantum Yield (BSA): 470 nm excitation; for Quantum Yield (BSA): relative to fluorescein in 0.1 M NaOH; for ABS λ max, unbound / EM λ max, unbound: dye without BSA
# Chain of BSA (P02769 25-607): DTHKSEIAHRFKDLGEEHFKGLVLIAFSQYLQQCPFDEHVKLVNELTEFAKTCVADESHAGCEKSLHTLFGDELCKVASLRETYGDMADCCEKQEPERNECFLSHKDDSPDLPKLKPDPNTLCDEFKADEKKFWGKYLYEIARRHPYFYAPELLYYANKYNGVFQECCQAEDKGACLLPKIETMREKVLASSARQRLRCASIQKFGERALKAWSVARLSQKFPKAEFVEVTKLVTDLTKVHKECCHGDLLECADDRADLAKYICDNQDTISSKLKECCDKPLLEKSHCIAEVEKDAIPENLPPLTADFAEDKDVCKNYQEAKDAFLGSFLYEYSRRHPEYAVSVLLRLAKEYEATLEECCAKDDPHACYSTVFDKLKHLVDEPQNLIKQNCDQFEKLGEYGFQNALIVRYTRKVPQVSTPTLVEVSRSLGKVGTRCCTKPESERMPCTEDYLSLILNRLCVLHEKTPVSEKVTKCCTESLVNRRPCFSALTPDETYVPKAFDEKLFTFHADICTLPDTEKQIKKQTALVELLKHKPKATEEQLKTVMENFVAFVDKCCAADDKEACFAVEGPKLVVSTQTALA
# Description: A particular dye of this invention is generally selected for a particular assay using one or more of the following criteria: sensitivity to poly(amino acids), insensitivity to the presence of nucleic acids, dynamic range, photostability, staining time, and spectral properties. […] Although the fluorescence enhancements and quantum yields are low to moderate in solution, some are significant relative to the long wavelength emission maxima (see Table 1 and Example 21).
# Measurements are performed using −1 μM dye+/−150 μg/mL BSA in 10 mM Tris-HCl, pH 7.5,+0.05% SDS with a 2.0 mL sample volume. Fluorescence enhancements are calculated at emission maxima in a standard fluorometer using 470 nm excitation. Fluorescence quantum yields are determined relative to fluorescein (in 0.1 M NaOH), using 470 nm excitation.
# [1] = test system: broad-range protein molecular weight markers; experiment: Staining of broad-range molecular weight protein standards in SDS-polyacrylamide gels (Example 22, FIG. 2, 3); conditions: regardless of the buffer
# Description: (§1) FIG. 2: Intensity profile comparison after staining broad-range protein molecular weight markers with SYPRO Orange dye in 7% acetic acid and phosohate-buffered saline. FIG. 2A.) Profile obtained with SYPRO Orange dye in 7% acetic acid. FIG. 2B.) Profile obtained with SYPRO Orange dye in 50 mM sodium phosphate, 150 mM sodium chloride, pH 7.0. Grey scale values of the fluorescence signals were inverted prior to obtaining the traces to facilitate evaluation of the peaks.
# as §1, with “3:” for “2:”, “Compound 9” for “SYPRO Orange dye”, “phosphate-buffered” for “phosohate-buffered”, “3A.)” for “2A.)”, “3B.)” for “2B.)”
# SDS-polyacrylamide gel electrophoresis is performed by standard methods utilizing 4% T, 2.6% C stacking gels, pH 6.8 and 15% T, 2.6% C separating gels, pH 8.8. % T is the total monomer concentration expressed in grams per 100 mL and % C is the percentage crosslinker. A staining solution of Compound 9 is prepared by diluting a stock solution that 5 is […] dye in DMSO in either 7.5% acetic acid or 50 mM Na2HPO4, 150 mM NaCl, pH 7.0 with vigorous mixing. Alternatively, a wide range of buffers are compatible with staining, including but not limited to formate, pH 4.0; citrate, pH 4.5; acetate, pH 5.0; MES, pH 6.0;
# imidazole, pH 7.0; HEPES, pH 7.5; Tris acetate, pH 8.0; Tris-HCl, pH 8.5; Tris borate, 20 mM EDTA, pH 9.0; and bicarbonate, pH 10.0. Buffers should be prepared as 50-100 mM 10 solutions containing about 150 mM NaCl. Approximately 50-75 mL of staining solution is used for a typical mini-gel (5 cm×9 cm×1 mm). The gel is placed into the staining solution and the container is covered with aluminum foil to protect the dye from bright light. The gel is gently agitated for at least 30 minutes at room temperature using an orbital shaker (50:RPM). After staining, the gel is briefly dipped in water and visualized on a UV light box. […] As little as 1 ng of protein may be visualized when the fluorescent image is recorded by photography using a cellophane 490-nm long pass filter. […] In the latter buffer, protein bands are barely detectable above background fluorescence with these latter dyes.
# [2] = test system: amino acid homo- and hetero-polymers; experiment: Dye staining of amino acid homo- and hetero-polymers copolymerized into polyacrylamide gel discs; conditions: gel discs with 0.1% SDS; no asterisk = moderate
# Description: The specificity of protein detection of the present method can be compared to that of silver, CBB, SYPRO Orange dye and SYPRO Red dye staining for a variety of synthetic poly(amino acids) copolymerized into a polyacrylamide gel matrix. To do this, homopolymers of L-arginine, asparagine, histidine, lysine, aspartate, glutamate, alanine, glycine, isoleucine, leucine, methionine, serine, threonine, tryptophan, tyrosine and proline are copolymerized into 15% T, 2.6% C polyacrylamide gels at a concentration of […]. Except when indicated, 0.1% sodium dodecyl sulfate is included in the polyacrylamide solution as well. The amino acid heteropolymers, poly(glutamate, alanine, tyrosine), poly(glutamate, tyrosine), poly(lysine, tyrosine), poly(glutamate, lysine, tyrosine), and poly(arginine, tyrosine) are copolymerized into polyacrylamide gels in an identical manner as the homopolymers. Blank gels containing no polymer are prepared for reference. The co-polymerized gels are cut into discs using the large end of a 1000 microliter pipet tip (Sorenson Bioscience, Inc., West Salt. Lake City, Utah) and stained in Falcon 48 well flat bottom tissue culture plates (Becton-Dickinson, Franklin Lakes, N.J.) on an orbital shaker operating at 50 RPM. Gel discs are quantified on a Roche Lumi-Imager system (Indianapolis, Ind.) and classified into three groups based upon staining intensity (strong, moderate, or weak staining).
Compound,"ABS λ max, BSA (BSA)","EM λ max, BSA (BSA)","FE (fluorescence enhancement, BSA) (BSA)",Quantum Yield (BSA) (BSA),"ABS λ max, unbound (BSA)","EM λ max, unbound (BSA)",Appearance of stained proteins on UV light box [1],"Staining intensity, Arg homopolymer [2]","Staining intensity, Arg:Tyr heteropolymer [2]","Staining intensity, Glu:Lys:Tyr heteropolymer [2]","Staining intensity, His homopolymer [2]","Staining intensity, Ile homopolymer [2]","Staining intensity, Lys homopolymer [2]","Staining intensity, Lys:Tyr heteropolymer [2]"
CCOCC(=O)CCC[n+]1ccc(/C=C/c2ccc3c(c2)c2ccccc2n3CC)c2ccccc21.[Br-] [Compound 10],492 nm,612 nm,110 fold,0.21,468 nm,~700 nm,–,–,–,–,–,–,–,–
CCn1c2ccccc2c2cc(/C=C/c3ccc4ccccc4[n+]3CCCCS(=O)(=O)[O-])ccc21 [Compound 12],453 nm,587 nm,34 fold,0.10,441 nm,679 nm,–,–,–,–,–,–,–,–
CCCCc1cc(/C=C/c2ccc3c(c2)c2ccccc2n3CC)c2ccccc2[n+]1-c1ccccc1.[Cl-] [Compound 16],491 nm,623 nm,25 fold,0.17,480 nm,676 nm,–,–,–,–,–,–,–,–
CCn1c2ccccc2c2cc(/C=C/c3cc[n+](CCCS(=O)(=O)[O-])cc3)ccc21 [Compound 13],–,553 nm,15 fold,0.24,–,588 nm,very bright yellow bands against an orange background,–,–,–,–,–,–,–
CCn1c2ccccc2c2cc(/C=C/c3sc4ccccc4[n+]3CCCS(=O)(=O)[O-])ccc21 [Compound 14],464 nm,576 nm,15 fold,0.08,448 nm,638 nm,–,–,–,–,–,–,–,–
O=S(=O)([O-])CCCC[n+]1ccc(/C=C/c2ccc3c(c2)c2ccccc2n3-c2ccccc2)c2ccccc21 [Compound 15],469 nm,591 nm,52 fold,0.25,468 nm,670 nm,–,–,–,–,–,–,–,–
CCOc1ccc(Nc2ccc(C(=C3C=CC(=[N+](CC)Cc4cccc(S(=O)(=O)[O-])c4)C=C3)c3ccc(N(CC)Cc4cccc(S(=O)(=O)[O-])c4)cc3)cc2)cc1.[Na+] [Coomassie Blue-R],–,–,–,–,–,–,–,Arg*,Arg:Tyr*,Glu:Lys:Tyr*,His,Ile,Lys*,Lys:Tyr*
CCn1c2ccccc2c2cc(/C=C/c3ccc4cc(OC)ccc4[n+]3C)ccc21 [Compound 17],–,~610 nm,2.5 fold,0.04,–,679 nm,–,–,–,–,–,–,–,–
CCn1c2ccccc2c2cc(/C=C/C3=[N+](CCCCCC(=O)O)c4ccc(S(=O)(=O)[O-])cc4C3(C)C)ccc21 [Compound 18],502 nm,590 nm,3.0 fold,0.01,503 nm,611 nm,–,–,–,–,–,–,–,–
CCn1c2ccccc2c2cc(/C=C/c3cc[n+](CCCC(=O)O)c4ccccc34)ccc21.[Cl-] [Compound 11],483 nm,609 nm,104 fold,0.21,475 nm,~700 nm,–,–,–,–,–,–,–,–
Silver,–,–,–,–,–,–,–,–,–,Tyr*,–,Ile,Lys*,Lys:Tyr*
